Laboratory results published in ChEMBL document CHEMBL1772945, “Bioactive compounds from the scale insect pathogenic fungus Conoideocrella tenuis BCC 18627” (J Nat Prod, 2011).
Converted amounts (≈) assume the structure as drawn. Where a name gives a salt, the structure may show the parent alone.

Columns and labels:
Human alphaherpesvirus 1 = experiment: Antiviral activity against HSV-1 by green fluorescent protein microplate assay; format: functional, organism-based
Plasmodium falciparum = experiment: Antimalarial activity against multi-drug-resistant Plasmodium falciparum K1 by microculture radioisotope technique; format: functional, organism-based
Vero = experiment: Cytotoxicity against african green monkey Vero cells by green fluorescent protein microplate assay; format: cell-based; settings: Chlorocebus sabaeus
MCF7 = experiment: Cytotoxicity against human MCF7 cells after 45 hrs by resazurin microplate assay; format: functional, cell-based; settings: MCF7, 45 h
[1] = tested on: Mycobacterium tuberculosis; experiment: Antitubercular activity against Mycobacterium tuberculosis H37Ra by green fluorescent protein microplate assay; format: functional
NCI-H187 = experiment: Cytotoxicity against human NCI-H187 cells after 45 hrs by resazurin microplate assay; format: functional, cell-based; settings: NCI-H187, 45 h
KB = experiment: Cytotoxicity against human KB cells after 45 hrs by resazurin microplate assay; format: functional, cell-based

SMILES: CC(C)(O)[C@H]1CC[C@]2(C)[C@H]3C[C@@H](O)[C@@H]4[C@@]5(C)CCCC(C)(C)[C@@H]5[C@H](O)C[C@@]4(C)[C@]3(C=O)CC[C@@H]12
- IC50 (Human alphaherpesvirus 1): 21 µM
- IC50 (Plasmodium falciparum): > 21 µM
- IC50 (Vero): 69 µM
- IC50 (MCF7): 28 µM
- MIC [1]: > 105 µM
- IC50 (NCI-H187): 68 µM
- IC50 (KB): 10 µM

SMILES: Nc1nc2c(ncn2COCCO)c(=O)[nH]1 [ACYCLOVIR]
- IC50 (Human alphaherpesvirus 1): 17 µM

SMILES: Cc1c2ccncc2c(C)c2c1[nH]c1ccccc12 [ELLIPTECINE]
- IC50 (Vero): 12 µM

SMILES: CC(C)(O)[C@H]1CC[C@]2(C)[C@H]3C[C@@H](O)[C@@H]4[C@@]5(C)CCCC(C)(C)[C@@H]5[C@H](O)C[C@@]4(C)[C@]3(CO)CC[C@@H]12
- IC50 (Human alphaherpesvirus 1): 14 µM
- IC50 (Plasmodium falciparum): 9.8 µM
- IC50 (Vero): 47 µM
- IC50 (MCF7): 15 µM
- MIC [1]: 52 µM (≈ 24.8 µg/mL)
- IC50 (NCI-H187): 47 µM
- IC50 (KB): 5.6 µM

SMILES: COc1cc(OC)c2c(O)c3c(c(-c4c(OC)cc(OC)c5c(O)c6c(cc45)[C@H](OC(C)=O)[C@H](C)OC6)c2c1)[C@H](OC(C)=O)[C@H](C)OC3
- IC50 (Human alphaherpesvirus 1): > 75 µM
- IC50 (Plasmodium falciparum): 15 µM
- IC50 (Vero): > 75 µM
- IC50 (MCF7): 37 µM
- MIC [1]: > 75 µM
- IC50 (NCI-H187): 12 µM
- IC50 (KB): 15 µM

SMILES: COc1cc(OC)c2c(O)c3c(c(-c4c5c(c(O)c6c(OC)cc(OC)cc46)CO[C@@H](C)[C@H]5OC(C)=O)c2c1)[C@H](OC(C)=O)[C@H](C)OC3
- IC50 (Human alphaherpesvirus 1): > 75 µM
- IC50 (Plasmodium falciparum): 10 µM
- IC50 (Vero): > 75 µM
- IC50 (MCF7): 22 µM
- MIC [1]: > 75 µM
- IC50 (NCI-H187): 71 µM
- IC50 (KB): 4.4 µM

SMILES: CC(C)(O)[C@H]1CC[C@]2(C)[C@H]3CC[C@@H]4[C@@]5(C)CCCC(C)(C)[C@@H]5[C@H](O)[C@H](O)[C@@]4(C)[C@]3(C)CC[C@@H]12
- IC50 (Human alphaherpesvirus 1): > 109 µM
- IC50 (Plasmodium falciparum): > 22 µM
- IC50 (Vero): > 109 µM
- IC50 (MCF7): > 109 µM
- MIC [1]: > 109 µM
- IC50 (NCI-H187): > 109 µM
- IC50 (KB): > 109 µM

SMILES: COc1cccc2c1C(=O)c1c(O)c3c(c(O)c1C2=O)C[C@@](O)(C(=O)CO)C[C@@H]3O[C@H]1C[C@H](N)[C@H](O)[C@H](C)O1 [DOXORUBICIN HYDROCHLORIDE]
- IC50 (MCF7): 4.9 µM
- IC50 (NCI-H187): 0.23 µM
- IC50 (KB): 0.27 µM
